Test results reported in patent US20160024098A1, “HYBRID NECROPTOSIS INHIBITORS” (PRESIDENT AND FELLOWS OF HARVARD COLLEGE, priority 2013, published 2016).

The molecules below were run on FADD-deficient Jurkat cells (assay: necroptosis assay (TNF-α-induced necroptosis, CellTiter-Glo ATP-based viability)). Details: FADD-deficient Jurkat cells treated with 10 ng/ml human TNFalpha for 24 hr, eleven concentrations.
Assay type: cell-based
Procedure: Evaluation of necroptosis inhibitory activity can be performed using a FADD-deficient variant of human Jurkat T cells treated with TNF-α as previously described (Degterev et al., Nat. Chem. Biol. 1:112 (2005) and Jagtap et al., J. Med. Chem. 50: 1886 (2007)). For EC50 value determinations, cells can be treated with 10 ng/mL of human TNF-α in the presence of increasing concentration of test compounds for 24 hours followed by ATP-based viability assessment.
ATP-based viability assessment: Briefly, necroptosis activity can be performed using a FADD-deficient variant of human Jurkat T cells treated with TNF-α. For EC50 value determinations, cells (500,000 cells/mL, 100 μL per well in a 96-well plate) can be treated with 10 ng/mL of human TNF-α in the presence of increasing concentration of test compounds for 24 hours at 37° C. in a humidified incubator with 5% CO2 followed by ATP-based viability assessment. Stock solutions (30 mM) in DMSO can be prepared and then diluted with DMSO to give testing solutions, which were added to each test well. The final DMSO concentration can be 0.5%. Eleven compound test concentrations (0.030-100 μM) can be used, and each concentration can be done in duplicate.
Cell viability assessments can be performed using a commercial luminescent ATP-based assay kit (CellTiter-Glo, Promega, Madison, Wis.) according to the manufacturer's instructions. Briefly, 40 μL of the cell lysis/ATP detection reagent can be added to each well. Plates can be incubated on a rocking platform for 10 minutes at room temperature and luminescence was measured using a Wallac Victor 3 plate-reader (Perkin Elmer, Wellesley, Mass.). Cell viability can be expressed as a ratio of the signal in the well treated with TNF-α and compound to the signal in the well treated with compound alone in order to account for nonspecific toxicity. EC50 values can be calculated using nonlinear regression analysis of sigmoid dose-response (variable slope) curves from plots of log [I] verses viability values.
For necroptosis assay, FADD-deficient Jurkat cells were treated with 10 ng/ml human TNFalpha for 24 hr, followed by CellTiter-Glo viability assay (Promega). EC50 values were calculated using non-linear regression in GraphPad Prism software. Eleven concentrations of each compound were tested to generate dose response curves.

| Structure (SMILES) | EC50 [nM] | EC50, nM in necroptosis assay |
| --- | --- | --- |
| Cc1ccc(C(=O)NCCN2C(=O)NC(Cc3c[nH]c4c(Cl)cccc34)C2=O)cc1C#Cc1cnc2ccccn12 (stereo not drawn) [Compound (2)] | 163 |  |
| Cc1ccc(OCCN2C(=O)NC(Cc3c[nH]c4c(Cl)cccc34)C2=O)cc1C#Cc1cnc2cccnn12 (stereo not drawn) [Compound (32)] | 134 |  |
| Cc1ccc(CCCN2C(=O)NC(Cc3c[nH]c4c(Cl)cccc34)C2=O)cc1C#Cc1cnc2cccnn12 (stereo not drawn) [Compound (33)] | 74.4 |  |
| CNC(=O)c1cc(Oc2ccc(NC(=O)CCN3C(=O)NC(Cc4c[nH]c5c(Cl)cccc45)C3=O)c(F)c2)ccn1 (stereo not drawn) [Compound (36)] | 19300 |  |
| Cc1ccc(C(=O)NCCN2C(=O)NC(Cc3c[nH]c4c(Cl)cccc34)C2=O)cc1CCc1cnc2cccnn12 (stereo not drawn) [Compound (8)] | 1770 |  |
| CNC(=O)c1cc(Oc2ccc(CCCN3C(=O)NC(Cc4c[nH]c5c(Cl)cccc45)C3=O)c(F)c2)ccn1 (stereo not drawn) [Compound (37)] | 24500 |  |
| CNC(=O)c1cc(Oc2ccc(NC(=O)N3C(=O)NC(Cc4c[nH]c5c(Cl)cccc45)C3=O)c(F)c2)ccn1 (stereo not drawn) [Compound (38)] |  | INACTIVE |
| O=C(NCCN1C(=O)NC(Cc2c[nH]c3c(Cl)cccc23)C1=O)c1cccc(C#Cc2cnc3cccnn23)c1 (stereo not drawn) [Compound (3)] | 364 |  |
| Cc1ccc(C(=O)NCCN2C(=O)NC(Cc3c[nH]c4c(Cl)cccc34)C2=O)cc1C#Cc1cnc2cccnn12 (stereo not drawn) [Compound (1)] | 200 |  |
| Cc1ccc(CCCCCN2C(=O)NC(Cc3c[nH]c4c(Cl)cccc34)C2=O)cc1C#Cc1cnc2cccnn12 (stereo not drawn) [Compound (34)] | 185 |  |
| Cc1ccc(CCN2C(=O)NC(Cc3c[nH]c4c(Cl)cccc34)C2=O)cc1C#Cc1cnc2cccnn12 (stereo not drawn) [Compound (31)] | 136 |  |
| O=C1NC(Cc2c[nH]c3c(Cl)cccc23)C(=O)N1CCC#Cc1cnc2cccnn12 (stereo not drawn) [Compound (41)] | 745 |  |
| Cc1ccc(CCCCN2C(=O)NC(Cc3c[nH]c4c(Cl)cccc34)C2=O)cc1C#Cc1cnc2cccnn12 (stereo not drawn) [Compound (29)] | 9.9 |  |
| Cc1cc(CCCCN2C(=O)NC(Cc3c[nH]c4c(Cl)cccc34)C2=O)ccc1C#Cc1cnc2cccnn12 (stereo not drawn) [Compound (35)] | 299 |  |
| Cc1ccc(SCCN2C(=O)NC(Cc3c[nH]c4c(Cl)cccc34)C2=O)cc1C#Cc1cnc2cccnn12 (stereo not drawn) [Compound (30)] | 80.4 |  |
